Data set [1] concerns the target T1, wild type AXL (wtAXL) receptor tyrosine kinase (Homo sapiens, UniProt P30530).
T1 construct: WtAXL cDNA was cloned into vector pLXSN(ESK) and transfected into Phoenix E packaging cells; expressed in transfected cells; host or cells: NIH3T3 N7 (mouse fibroblasts), retrovirally infected, clone 22
T1 sequence (P30530 26-894): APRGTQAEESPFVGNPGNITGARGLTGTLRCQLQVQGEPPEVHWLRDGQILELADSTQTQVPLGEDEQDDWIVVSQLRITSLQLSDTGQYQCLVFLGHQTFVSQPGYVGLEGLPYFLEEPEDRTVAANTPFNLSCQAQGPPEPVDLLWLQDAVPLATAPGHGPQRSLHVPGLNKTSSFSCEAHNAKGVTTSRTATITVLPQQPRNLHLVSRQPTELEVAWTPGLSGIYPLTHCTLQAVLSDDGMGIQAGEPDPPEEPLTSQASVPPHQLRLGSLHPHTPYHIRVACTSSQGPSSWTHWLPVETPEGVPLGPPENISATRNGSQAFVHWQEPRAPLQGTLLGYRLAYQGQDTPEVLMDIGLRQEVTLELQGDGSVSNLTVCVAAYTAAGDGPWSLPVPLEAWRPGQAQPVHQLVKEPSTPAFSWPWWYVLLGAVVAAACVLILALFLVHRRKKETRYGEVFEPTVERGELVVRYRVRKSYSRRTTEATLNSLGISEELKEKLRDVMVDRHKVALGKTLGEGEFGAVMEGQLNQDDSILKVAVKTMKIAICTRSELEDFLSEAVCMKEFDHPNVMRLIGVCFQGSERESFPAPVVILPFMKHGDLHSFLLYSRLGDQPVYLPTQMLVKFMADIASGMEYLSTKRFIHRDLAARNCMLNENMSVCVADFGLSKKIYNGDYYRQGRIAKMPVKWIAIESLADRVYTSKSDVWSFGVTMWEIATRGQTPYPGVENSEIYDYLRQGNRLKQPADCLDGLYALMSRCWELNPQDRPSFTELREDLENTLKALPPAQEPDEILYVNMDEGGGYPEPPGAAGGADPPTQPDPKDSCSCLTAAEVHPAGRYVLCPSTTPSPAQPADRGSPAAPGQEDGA
Briefly: NIH-3T3-AXL cellular kinase assay (pY-AXL-ELISA). Format: cell-based. The conditions noted are these: NIH-3T3-AXL (clone 22) cells, serum depleted, compounds 1 h; Table Ia. In a few lines: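 Phospho-AXL was quantified by ELISA in lysates (4G10-biotin, streptavidin-AP, AttoPhos, 430/560 nm read at 90 min). The cells were monoclonal NIH3T3 lines stably transduced with human wtAXL, exposed to serial compound dilutions for 1 h before lysis.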
(In general: In an ELISA, binding on a coated surface is turned into a signal by an enzyme label.)

Data set [2] deals with Hs578T. Briefly: Cell vitality assay (ATP assay, CellTiter-Glo). Format: cell-based. The conditions noted are these: Homo sapiens, Hs-578T; HS578T cell line, 72 h; Table Ib; read-out: IC50 ATP-Assay HS578T after 72 h. In a few lines: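 Luminescent ATP read-out of viable cells; IC50 = concentration at which ATP falls to 50% of DMSO control. Cells seeded at 1000/well, treated 72 h with seven concentrations from 0.195 to 12.5 μM.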

Data set [3] has as its system Hs578T. Briefly: Wound healing migration assay. Format: cell-based. The conditions noted are these: Homo sapiens, Hs-578T; HS578T cell line; Table Ib. In a few lines:
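Compound exposure at 12.5, 6.25 and 3.125 μM, with DMSO control, on scratch-wounded monolayers (150000 cells/24 well, overnight). Wound closure imaged by microscopy, fixed with crystal violet after 48 h or 72 h depending on cell line; IC50 is the concentration giving 50% wound size between t0 and t48/t72.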

Data set [4] has as its system Hs578T. Briefly: Matrigel outgrowth assay/branching assay. The class given is cell-based. As to conditions: Homo sapiens, Hs-578T; HS578T cell line; Table Ib; read-out: Total branching inhibition in Matrigel HS578T. In a few lines:
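Invasive outgrowth into a 3 mg/ml Matrigel gel is judged from images taken after 48, 72 and 96 h of exposure to 3.125, 1.56 or 0.78 μM compound, with DMSO as control. Positive means total inhibition of branching.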

Broadly, the melting point is the temperature of the solid-liquid transition. `COc1cc2c(Oc3cccc(NS(=O)(=O)c4csc5ccccc45)c3)ccnc2cc1OCCCN1CCN(C)CC1` [Example 136, Benzo[b]thiophene-3-sulfonic acid (3-{6-methoxy-7-[3-(4-methyl-piperazin-1-yl)-propoxy]-quinolin-4-yloxy}-phenyl)-amide] displayed a melting point of 91 to 93 °C. This compound displayed an IC50 in data set [1] of 0.5 to 3 µM. In data set [2], the IC50 was at most 12.5 µM. This compound had an IC50 in data set [3] of at most 12.5 µM. In addition, the IC50 in data set [4] is at most 10 µM.

With `COc1cc2c(Oc3ccc(NS(=O)(=O)c4cccs4)cc3F)ccnc2cc1OCCCN1CCCCC1C` (stereo not shown) [Example 144, Thiophene-2-sulfonic acid (3-fluoro-4-{6-methoxy-7-[3-(2-methyl-piperidin-1-yl)-propoxy]-quinolin-4-yloxy}-phenyl)-amide], the melting point fell in the range of 117 to 119 °C. Also, the IC50 in data set [1] is below 0.5 µM. The IC50 in data set [2] is at most 12.5 µM. In data set [3], the IC50 was at most 12.5 µM. In addition, the IC50 in data set [4] was 10 to 25 µM.

Regarding `COc1cc2c(Oc3ccc(NS(=O)(=O)c4ccc(Cl)s4)cc3F)ccnc2cc1OCCCN1CCCCC1C` (stereo not shown) [Example 145, 5-Chloro-thiophene-2-sulfonic acid (3-fluoro-4-{6-methoxy-7-[3-(2-methyl-piperidin-1-yl)-propoxy]-quinolin-4-yloxy}-phenyl)-amide], the melting point lay within 118 to 120 °C. The IC50 in data set [1] was below 0.5 µM. The IC50 in data set [2] was at most 12.5 µM. The same compound registered an IC50 in data set [3] of at most 12.5 µM. Moreover, the IC50 in data set [4] was 10 to 25 µM.

Compound `COc1cc2c(Oc3ccc(NS(=O)(=O)c4c(Cl)csc4Cl)cc3F)ccnc2cc1OCCCN1CCCCC1C` (stereo not shown) [Example 146, 2,4-Dichloro-thiophene-3-sulfonic acid (3-fluoro-4-{6-methoxy-7-[3-(2-methyl-piperidin-1-yl)-propoxy]-quinolin-4-yloxy}-phenyl)-amide] displayed a melting point of 131 to 132 °C. This compound showed an IC50 in data set [1] below 0.5 µM. In data set [2], the IC50 is at most 12.5 µM. The IC50 in data set [3] is at most 12.5 µM. In addition, in data set [4], the IC50 lay in the range of 10 to 25 µM.

In the case of `COc1cc2c(Oc3ccc(NS(=O)(=O)c4csc5ccccc45)cc3F)ccnc2cc1OCCCN1CCCCC1C` (stereo not shown) [Example 147, Benzo[b]thiophene-3-sulfonic acid (3-fluoro-4-{6-methoxy-7-[3-(2-methyl-piperidin-1-yl)-propoxy]-quinolin-4-yloxy}-phenyl)-amide], the melting point is 120 to 122 °C. The IC50 in data set [1] lay in the range of 0.5 to 3 µM. In addition, in data set [2], the IC50 is at most 12.5 µM. The IC50 in data set [3] is at most 12.5 µM. Also, the IC50 in data set [4] was at most 10 µM.

Consider `COc1cc2c(Oc3ccc(NS(=O)(=O)c4ccco4)cc3F)ccnc2cc1OCCCN1CCCCC1C` (stereo not shown) [Example 148, Furan-2-sulfonic acid (3-fluoro-4-{6-methoxy-7-[3-(2-methyl-piperidin-1-yl)-propoxy]-quinolin-4-yloxy}-phenyl)-amide], for which the melting point lay within 118 to 119 °C. In data set [1], the IC50 was 0.5 to 3 µM. In addition, in data set [2], the IC50 is at most 12.5 µM. In data set [3], this compound registered an IC50 of 12.5 to 50 µM. For the same compound, the IC50 in data set [4] was 10 to 25 µM.

For `COc1cc2c(Oc3ccc(NS(=O)(=O)c4c(F)cccc4F)cc3F)ccnc2cc1OCCCN1CCCCC1C` (stereo not shown) [Example 152, 2,6-Difluoro-N-(3-fluoro-4-{6-methoxy-7-[3-(2-methyl-piperidin-1-yl)-propoxy]-quinolin-4-yloxy}-phenyl)-benzenesulfonamide], the melting point lay within 132 to 134 °C. This compound also had an IC50 in data set [1] below 0.5 µM. Besides, in data set [2], the IC50 is at most 12.5 µM. In data set [3], this compound gave an IC50 of at most 12.5 µM. The IC50 in data set [4] was at most 10 µM.

`COc1cc2c(Oc3ccc(NS(=O)(=O)c4ccccc4OC(F)(F)F)cc3F)ccnc2cc1OCCCN1CCCCC1C` (stereo not shown) [Example 153, N-(3-Fluoro-4-{6-methoxy-7-[3-(2-methyl-piperidin-1-yl)-propoxy]-quinolin-4-yloxy}-phenyl)-2-trifluoromethoxy-benzenesulfonamide] displayed a melting point of 90 to 92 °C. In data set [1], this compound yielded an IC50 below 0.5 µM. The IC50 in data set [2] was at most 12.5 µM. For the same compound, the IC50 in data set [3] is at most 12.5 µM. The IC50 in data set [4] is 10 to 25 µM.

Take `COc1cc2c(Oc3ccc(NS(=O)(=O)c4cc(Cl)ccc4Cl)cc3F)ccnc2cc1OCCCN1CCCCC1C` (stereo not shown) [Example 154, 2,5-Dichloro-N-(3-fluoro-4-{6-methoxy-7-[3-(2-methyl-piperidin-1-yl)-propoxy]-quinolin-4-yloxy}-phenyl)-benzenesulfonamide]: the melting point fell in the range of 128 to 130 °C. Also, the IC50 in data set [1] is below 0.5 µM. The IC50 in data set [2] is at most 12.5 µM. Also, the IC50 in data set [3] was at most 12.5 µM. Moreover, the IC50 in data set [4] lay in the range of 10 to 25 µM.

As for `COc1cc2c(Oc3ccc(NS(=O)(=O)c4cc(F)ccc4F)cc3C)ccnc2cc1OCCCN1CCC(C)CC1` [Example 171, 2,5-Difluoro-N-(4-{6-methoxy-7-[3-(4-methyl-piperidin-1-yl)-propoxy]-quinolin-4-yloxy}-3-methyl-phenyl)-benzenesulfonamide], the melting point was 222 to 223 °C. Besides, the IC50 in data set [1] lay in the range of 0.5 to 3 µM. The IC50 in data set [2] lay in the range of 12.5 to 50 µM. Further, the IC50 in data set [3] was 12.5 to 50 µM. In addition, in data set [4], the IC50 lay within 10 to 25 µM.

The compound `COc1cc2c(Oc3ccc(NS(=O)(=O)c4c(F)cccc4F)cc3C)ccnc2cc1OCCCN1CCC(C)CC1` [Example 172, 2,6-Difluoro-N-(4-{6-methoxy-7-[3-(4-methyl-piperidin-1-yl)-propoxy]-quinolin-4-yloxy}-3-methyl-phenyl)-benzenesulfonamide] gave a melting point of 191 to 193 °C. The IC50 in data set [1] was 0.5 to 3 µM. The IC50 in data set [2] is at most 12.5 µM. Besides, in data set [3], the IC50 was at most 12.5 µM. The IC50 in data set [4] was at most 10 µM.

`COc1cc2c(Oc3ccc(NS(=O)(=O)c4c(F)cccc4F)cc3OC)ccnc2cc1OCCCN1CCC(C)CC1` [Example 173, 2,6-Difluoro-N-(3-methoxy-4-{6-methoxy-7-[3-(4-methyl-piperidin-1-yl)-propoxy]-quinolin-4-yloxy}-phenyl)-benzenesulfonamide] displayed a melting point of 98 to 101 °C. In addition, in data set [1], the IC50 was in the range of 0.5 to 3 µM. In addition, the IC50 in data set [2] is at most 12.5 µM. In data set [3], this compound displayed an IC50 of 12.5 to 50 µM. In addition, in data set [4], the IC50 was in the range of 10 to 25 µM.

The compound `COc1cc2c(Oc3ccc(NS(=O)(=O)c4ccccc4OC(F)(F)F)cc3C)ccnc2cc1OCCCN1CCC(C)CC1` [Example 174, N-(4-{6-Methoxy-7-[3-(4-methyl-piperidin-1-yl)-propoxy]-quinolin-4-yloxy}-3-methyl-phenyl)-2-trifluoromethoxy-benzenesulfonamide] showed a melting point of 168 to 169 °C. In addition, the IC50 in data set [1] lay in the range of 0.5 to 3 µM. In data set [2], the IC50 was at most 12.5 µM. For the same compound, the IC50 in data set [3] is at most 12.5 µM. Further, in data set [4], the IC50 is at most 10 µM.

For `COc1cc2c(Oc3ccc(NS(=O)(=O)c4cc(Cl)ccc4Cl)cc3C)ccnc2cc1OCCCN1CCC(C)CC1` [Example 175, 2,5-Dichloro-N-(4-{6-methoxy-7-[3-(4-methyl-piperidin-1-yl)-propoxy]-quinolin-4-yloxy}-3-methyl-phenyl)-benzenesulfonamide], the melting point was 187 to 188 °C. The compound further showed an IC50 in data set [1] of 0.5 to 3 µM. In addition, the IC50 in data set [2] is at most 12.5 µM. The compound also came in with an IC50 in data set [3] of at most 12.5 µM. In addition, the IC50 in data set [4] is at most 10 µM.

The values are drawn from patent US9169241B2, “Quinolinyloxyphenylsulfonamides” (Max-Planck-Gesellschaft Zur Forderung der Wissenschaften …, priority 2009, dated 2015).
